Assay results published in article PMC7413254 (Nature Communications, 2020).
Values joined by “and” are separate entries in the source; they are usually repeats but may differ in a detail not shown here. Equal entries are not always repeated. Where two headings read alike, the source gives them in different places.

Tests used:
[1] = tested on: non-expressing oocytes; assay: cells; assay type: cell-based, Xenopus laevis; conditions: Xenopus laevis, Oocyte
Outline: (§1)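 Using pH 5.5 ND96 at 27.5 °C, uptake is followed for 1.5 h, stopped with ice-cold buffer, and quantified as accumulated radioactivity per oocyte after SDS lysis.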

[2] = biological target: T1, PfCRT^3D7 (Plasmodium falciparum, UniProt Q8IBZ9); assay: cell-based; assay type: cell-based
T1 sequence (Q8IBZ9 59-398): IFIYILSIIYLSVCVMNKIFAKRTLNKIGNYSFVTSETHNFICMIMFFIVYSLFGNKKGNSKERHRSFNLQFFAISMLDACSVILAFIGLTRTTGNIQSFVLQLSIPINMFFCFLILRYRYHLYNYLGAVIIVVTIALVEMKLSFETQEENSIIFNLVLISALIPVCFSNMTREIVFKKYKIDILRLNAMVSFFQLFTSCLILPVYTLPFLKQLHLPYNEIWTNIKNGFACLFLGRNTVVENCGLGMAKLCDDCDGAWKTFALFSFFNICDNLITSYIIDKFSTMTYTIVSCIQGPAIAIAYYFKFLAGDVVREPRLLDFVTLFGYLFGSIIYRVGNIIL
Outline: as §1

[3] = biological target: T2, PfCRT^Dd2 (Plasmodium falciparum, UniProt Q9N623, A220S/I356T/K76T/M74I/N326S/N75E/Q271E/R371I); assay: [3H]CQ uptake into Xenopus oocytes, cis-inhibition by unlabelled solute; assay type: cell-based
T2 sequence (Q9N623 whole entry A220S/I356T/K76T/M74I/N326S/N75E/Q271E/R371I): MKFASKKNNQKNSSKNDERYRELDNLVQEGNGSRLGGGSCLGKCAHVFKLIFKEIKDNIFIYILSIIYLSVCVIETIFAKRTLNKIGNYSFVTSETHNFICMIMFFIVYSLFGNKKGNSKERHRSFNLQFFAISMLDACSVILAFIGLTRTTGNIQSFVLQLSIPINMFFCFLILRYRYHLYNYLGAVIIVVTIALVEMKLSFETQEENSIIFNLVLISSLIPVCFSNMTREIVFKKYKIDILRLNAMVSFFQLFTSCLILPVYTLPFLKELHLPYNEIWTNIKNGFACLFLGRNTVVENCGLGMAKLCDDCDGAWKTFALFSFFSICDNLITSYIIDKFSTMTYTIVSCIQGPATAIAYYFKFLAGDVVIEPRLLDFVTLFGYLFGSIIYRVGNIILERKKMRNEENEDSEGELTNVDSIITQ
Outline: as §1

[4] = biological target: T3, PfCRT^Ecu1110 (Plasmodium falciparum, UniProt Q9N623, A220S/I356L/K76T/N326D); assay: as above; assay type: cell-based
T3 sequence (Q9N623 whole entry A220S/I356L/K76T/N326D): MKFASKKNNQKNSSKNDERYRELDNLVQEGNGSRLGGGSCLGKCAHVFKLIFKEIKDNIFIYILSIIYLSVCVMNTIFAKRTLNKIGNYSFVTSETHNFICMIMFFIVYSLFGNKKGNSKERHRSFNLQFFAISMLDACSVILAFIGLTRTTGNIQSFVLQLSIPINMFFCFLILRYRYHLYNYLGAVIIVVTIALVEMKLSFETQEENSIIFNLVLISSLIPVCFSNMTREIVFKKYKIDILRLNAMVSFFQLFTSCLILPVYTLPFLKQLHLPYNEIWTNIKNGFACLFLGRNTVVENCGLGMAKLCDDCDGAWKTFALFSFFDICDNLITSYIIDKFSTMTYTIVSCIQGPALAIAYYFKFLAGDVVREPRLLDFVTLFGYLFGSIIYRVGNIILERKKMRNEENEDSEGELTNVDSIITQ
Outline: as §1

[5] = tested on: non-expressing oocytes; assay type: cell-based, Xenopus laevis
Outline: (§2)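 Oocytes (ten per treatment, ≥4 independent frogs/days) were preloaded by injecting VF-6 in 25 nL ND96 at pH 5.0, 5.5, 6.0 or 7.0, or Na^+-free choline buffer, then uptake run 1.5 h, 27.5 °C, ND96 pH 5.5 by default. Internal concentrations assumed ~400 nL oocyte volume.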

[6] = biological target: T1, PfCRT^3D7; assay: cell-based; assay type: cell-based; remark: listed apart in the source
Outline: as §2

[7] = biological target: T2, PfCRT^Dd2; assay: cell-based; assay type: cell-based; conditions: […]
Outline: as §2

[8] = biological target: T3, PfCRT^Ecu1110; assay: cell-based; assay type: cell-based; conditions: […]
Outline: as §2

[9] = biological target: T4, PfNT1 (Plasmodium falciparum, UniProt Q8IDM6); assay: cell-based; assay type: cell-based; conditions: […]
T4 construct: expressed in transfected cells; host or cells: Xenopus laevis oocytes (stage V-VI), cRNA-injected
T4 sequence (Q8IDM6 whole entry): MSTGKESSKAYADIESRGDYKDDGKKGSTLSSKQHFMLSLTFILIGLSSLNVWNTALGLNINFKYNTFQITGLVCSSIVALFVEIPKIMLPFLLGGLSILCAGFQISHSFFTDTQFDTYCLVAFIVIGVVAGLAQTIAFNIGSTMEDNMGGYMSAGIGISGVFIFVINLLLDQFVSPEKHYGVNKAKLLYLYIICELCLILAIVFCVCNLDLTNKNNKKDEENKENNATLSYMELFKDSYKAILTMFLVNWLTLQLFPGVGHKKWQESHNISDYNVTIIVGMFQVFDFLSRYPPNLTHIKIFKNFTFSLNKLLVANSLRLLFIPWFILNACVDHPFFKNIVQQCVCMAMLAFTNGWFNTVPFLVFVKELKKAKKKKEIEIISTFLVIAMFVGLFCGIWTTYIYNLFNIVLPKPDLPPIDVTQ
Outline: as §2

[10] = tested on: PfCRT; assay: Test of solutes as potential co-substrates for influx of VF-6 via PfCRT into the oocyte; assay type: cell-based, Plasmodium falciparum; set-up: key: X: Compounds that have been tested as potential co-substrates but are not required for influx of VF-6 via PfCRT into the oocyte; conditions: X = tested
[11] = tested on: PfCRT; assay: Potential co-substrates tested for influx of VF-6 via PfCRT into the oocyte; assay type: cell-based, Plasmodium falciparum; set-up: key: X: Compounds that have been tested as potential co-substrates but are not required for influx of VF-6 via PfCRT into the oocyte
[12] = read-out: Uptake of [3H]CQ (% PfCRTDd2 control), cis-inhibition, non-expressing oocytes, SEM
[13] = read-out: Uptake of [3H]CQ (% non-expressing oocyte control), cis-inhibition
[14] = read-out: Uptake of [3H]CQ (% PfCRT3D7 control), cis-inhibition
[15] = read-out: Uptake of [3H]CQ (% PfCRTDd2 control), cis-inhibition, PfCRT3D7, SEM
[16] = read-out: PfCRT-mediated [3H]CQ transport, cis-inhibition (% PfCRTDd2 control)
[17] = read-out: Uptake of [3H]CQ (% PfCRTDd2 control), cis-inhibition, PfCRTDd2, SEM
[18] = read-out: PfCRT-mediated [3H]CQ transport, cis-inhibition (% PfCRTEcu1110 control)
[19] = read-out: Uptake of [3H]CQ (% PfCRTDd2 control), cis-inhibition, PfCRTEcu1110, SEM
[20] = read-out: Uptake of [3H]CQ (% PfCRTEcu1110 control), cis-inhibition
[21] = read-out: [3H]CQ transport (% PfCRTEcu1110 control), cis-inhibition, PfCRTEcu1110, SEM
[22] = read-out: PfCRT-mediated [3H]CQ transport, trans-stimulation (% PfCRT3D7 control)
[23] = read-out: Uptake of [3H]CQ (% PfCRT3D7 control), trans-stimulation
[24] = read-out: Uptake of [3H]CQ (% PfCRTDd2 control), trans-stimulation, PfCRT3D7, SEM
[25] = read-out: Uptake of [3H]CQ (% PfCRTDd2 control), trans-stimulation, PfNT1, SEM
[26] = read-out: Uptake of [3H]CQ (% PfNT1 control), trans-stimulation

Structure (SMILES): CSCC[C@H](N)C(=O)O [L-methionine]
- inhibition at 500 µM [1, 12]: 2.7 ± 0.03%
- inhibition at 1000 µM [1, 12]: 2.5 ± 0.01%
- inhibition at 2000 µM [1, 12]: 2.9 ± 0.04%
- inhibition at 500 µM [1, 13]: 99 ± 3.6%
- inhibition at 1000 µM [1, 13]: 99 ± 3.5%
- inhibition at 2000 µM [1, 13]: 101 ± 4.6%
- inhibition at 500 µM [2, 14]: 100 ± 3.6%
- inhibition at 1000 µM [2, 14]: 100 ± 3.3%
- inhibition at 2000 µM [2, 14]: 102 ± 2.5%
- inhibition at 500 µM [2, 15]: 2.4 ± 0.07%
- inhibition at 1000 µM [2, 15]: 2.2 ± 0.06%
- inhibition at 2000 µM [2, 15]: 3.4 ± 0.07%
- inhibition at 500 µM [3, 16]: 96 ± 3.6%
- inhibition at 2000 µM [3, 16]: 95 ± 5.1%
- inhibition at 500 µM [3, 17]: 98 ± 2.4%
- inhibition at 1000 µM [3, 17]: 100 ± 2.1%
- inhibition at 2000 µM [3, 17]: 97 ± 2.4%
- inhibition at 500 µM [4, 18]: 94 ± 4.4%
- inhibition at 1000 µM [4, 18]: 95 ± 3.1%
- inhibition at 2000 µM [4, 18]: 98 ± 1.5%
- inhibition at 500 µM [4, 19]: 31 ± 1.5%
- inhibition at 1000 µM [4, 19]: 32 ± 1.1%
- inhibition at 2000 µM [4, 19]: 33 ± 1.2%
- inhibition at 500 µM [4, 20]: 96 ± 2.5%
- inhibition at 1000 µM [4, 20]: 97 ± 5.3%
- inhibition at 2000 µM [4, 20]: 100 ± 2.5%
- inhibition at 500 µM [4, 21]: 28 ± 0.5%
- inhibition at 1000 µM [4, 21]: 29 ± 0.5%
- inhibition at 2000 µM [4, 21]: 30 ± 0.5%
- Uptake of [3H]CQ (% non-expressing oocyte control), trans-stimulation [5]: 99 ± 3.8 % non-expressing oocyte control and 98 ± 4.2 % non-expressing oocyte control
- Uptake of [3H]CQ (% PfCRTDd2 control), trans-stimulation, non-expressing oocytes ([5]; SEM): 2.4 ± 0.02 % PfCRTDd2 control and 2.8 ± 0.03 % PfCRTDd2 control
- [3H]CQ transport (% PfCRT3D7 control), trans-stimulation, PfCRT3D7 ([6]; SEM): 0.3 ± 0.03 % PfCRT3D7 control
- activity at 5000 µM [6, 22]: 97 ± 2.1%
- activity at 45000 µM [6, 22]: 97 ± 2.7%
- activity at 5000 µM [6, 23]: 99 ± 3.6%
- activity at 45000 µM [6, 23]: 99 ± 3.1%
- activity at 5000 µM [6, 24]: 3.3 ± 0.03%
- activity at 45000 µM [6, 24]: 3.3 ± 0.02%
- activity at 5000 µM ([7]; pH 5.5, read-out: Uptake of [3H]CQ (% PfCRTDd2 control), trans-stimulation, PfCRTDd2, total [3H]CQ transport, [test solute]i = 5 mM (intracellular), mean ± SEM, SEM): 100 ± 3.2%
- activity at 5000 µM ([7]; pH 5.5, read-out: Uptake of [3H]CQ (% PfCRTDd2 control), trans-stimulation, PfCRTDd2 oocytes, [test solute]i = 5 mM, total [3H]CQ transport, normalised to the oocyte type control): 100 ± 3.2%
- activity at 45000 µM ([7]; pH 5.5, read-out: Uptake of [3H]CQ (% PfCRTDd2 control), trans-stimulation, PfCRTDd2 oocytes, [test solute]i = 45 mM (30 mM for some solutes due to solubility), total [3H]CQ transport, normalised to the oocyte type control): 99 ± 1%
- activity at 5000 µM ([8]; pH 5.5, read-out: Uptake of [3H]CQ (% PfCRTEcu1110 control), trans-stimulation, PfCRTEcu1110 oocytes, [test solute]i = 5 mM, total [3H]CQ transport, normalised to the oocyte type control): 98 ± 2.1%
- activity at 45000 µM ([8]; pH 5.5, read-out: Uptake of [3H]CQ (% PfCRTEcu1110 control), trans-stimulation, PfCRTEcu1110 oocytes, [test solute]i = 45 mM (30 mM for some solutes due to solubility), total [3H]CQ transport, normalised to the oocyte type control): 100 ± 3.2%
- activity at 5000 µM ([8]; read-out: Uptake of [3H]CQ (% PfCRTDd2 control), trans-stimulation, PfCRTEcu1110, total [3H]CQ transport, [test solute]i = 5 mM (intracellular), mean ± SEM, SEM): 35 ± 1.3%
- activity at 45000 µM ([8]; read-out: Uptake of [3H]CQ (% PfCRTDd2 control), trans-stimulation, PfCRTEcu1110, total [3H]CQ transport, [test solute]i = 45 mM (intracellular; 30 mM for some solutes due to solubility), mean ± SEM, SEM): 36 ± 2.2%
- activity at 5000 µM [9, 25]: 2.2 ± 0.06%
- activity at 45000 µM [9, 25]: 2.7 ± 0.04%
- activity at 5000 µM [9, 26]: 100 ± 2.5%
- activity at 45000 µM [9, 26]: 99 ± 2.6%
- Tested as potential co-substrate but not required for influx of VF-6 via PfCRT into the oocyte [10]: X
- Tested as potential co-substrate but not required for influx of VF-6 via PfCRT into the oocyte [11]: X
